Counter-ions that a name gives are not always drawn.
Legend:
M21 human melanoma cells = assay: M21 melanoma cell adhesion assay (αvβ3-dependent adhesion to human fibrinogen-coated plates); type: cell-based; conditions: Homo sapiens, M21; read-out: M21 Melanoma Cells IC50
Experimental: M21 MELANOMA CELL ADHESION ASSASY
This assay involves an αvβ3-dependent adhesion of M21 human melanoma cells to human fibrinogen-coated plastic tissue culture dishes.
Fibrinogen was purified from human plasma. Fibronectin and plasminogen were eliminated from the preparation by passing the sample over gelatin-sepharose 4B and lysine-sepharose 4B resins, respectively. The fibrinogen is diluted to 10 μg/mL in coating buffer ([…] Tris-HCl, 150 mM NaCl, pH 7.4). 100 μL of diluted fibrinogen is added to each well of a 96-well Immulon 2 microtiter plate (Dynatech; Chantilly, Va.) and allowed to coat overnight at 4° C. Plates are blocked with 1% BSA (Miles/Pentex; Kankakee, Ill.) in adhesion buffer (Hank's balanced salt solution without Ca^++ or Mg^++ [HBSS−−], 50 mM Hepes, 1 mg/mL BSA, pH 7.4) for 1 hour at 37° C.
M21 human melanoma cells were provided by Dr. J. Smith, La Jolla Cancer Research Institute. M21 cells are harvested from tissue culture flasks by washing with HBSS−− and adding cell dissociation solution (Sigma) and incubating for 5 minutes at 37° C. Harvested cells are washed 3 times with adhesion assay buffer containing 200 μM Mn^++. Cells are counted and suspended to a density of 2×10^6/mL in adhesion assay buffer containing 200 μM Mn^++. M21 cells are pre-incubated with antagonists of αvβ3 for 30 minutes at room temperature. Following the pre-incubation, the solutions containing a mixture of cells and antagonists are added to each well of the microtiter plate and allowed to bind for 30 minutes at 37° C.
Following adhesion, plates are gently washed 3 times with 200 μL of wash buffer (50 mM Tris-HCl, 150 mM NaCl, pH 7.4) using large bore pipet tips. Plates are briefly blotted dry and 100 μL of cell lysis buffer (50 mM sodium acetate, pH 5.0, 0.5% Triton X-100, 0.3 mg/mL p-nitrophenyl phosphate [Sigma] is added to each well. Plates are incubated for 60 minutes at 37° C. and 50 μL of 1N NaOH is added to stop the reaction. The absorbance of the wells at […] is read using an automatic plate reader.

[1] = target: T1, Human vitronectin receptor (αvβ3) (Homo sapiens, UniProt P05106+P06756); assay: Vitronectin adhesion assay (solid phase receptor assay, competition with biotinylated vitronectin); type: binding; conditions: read-out: AvB3 IC50
T1 construct: Human vitronectin receptor (αvβ3) was purified from human placenta; from tissue; host or cells: human placenta
Method in brief: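 Purified human αvβ3 coated overnight at 4 °C in TBS with 1.0 mM Ca++, Mg++, Mn++, pH 7.4; compounds (top final 1.0×10^−4 M) competed with 1 nM biotinylated vitronectin for 2 h at room temperature. Bound ligand detected by HRP anti-biotin/OPD at A450; values normalized to no-competitor controls, four-parameter curve fit.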

platelet rich plasma = assay: Human platelet rich plasma assay (ADP induced platelet aggregation); type: cell-based; conditions: Homo sapiens, Platelet, ADP induced platelet aggregation in human platelet rich plasma; read-out: Human PRP
Method in brief: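 Citrated platelet-rich plasma from aspirin-free healthy human donors was stirred at 37 °C and preincubated with compound for 1 min. Aggregation was then triggered with ADP (added as a 200 uM solution) and recorded photometrically for 3 min. Dose–response curves were built from % inhibition of the maximal saline-control response.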

IC50 (M21 human melanoma cells) | IC50 [1] | IC50 (platelet rich plasma) | Structure (SMILES)
147 nM | 5.34 nM | > 200000 nM | NC(=O)Nc1cccc(C(=O)NCC(=O)NC(CC(=O)O)c2cccnc2)c1 (stereo not drawn) [Example 46, β-[[2-[[[3-(aminocarbonylamino)phenyl]carbonyl]amino]acetyl]amino]pyridine-3-propanoic acid, hydrochloride salt]
0.49 nM | 0.38 nM | 57500 nM | N=C(N)Nc1cccc(C(=O)NCC(=O)NC(CC(=O)O)c2cnc3ccccc3c2)c1 (stereo not drawn) [Example 99, β-[[2-[[[3-[(aminoiminomethyl)amino]phenyl]carbonyl]amino]acetyl]amino]quinoline-3-propanoic acid, bis(trifluoroacetate)salt]
0.28 nM | 0.69 nM | 73300 nM | N=C(N)Nc1cc(C(=O)NCC(=O)NC(CC(=O)O)c2cccnc2)c2ccccc2c1 (racemic) [Example 8, (±)β-[[2-[[[3-[(aminoiminomethyl)amino]naphthalen-1-yl]carbonyl]amino]acetyl]amino]pyridine-3-propanoic acid, bis(trifluoroacetate)salt]
11.7 nM | 3.62 nM | > 200000 nM | N=C(N)Nc1cccc(C(=O)NCC(=O)NC(CC(=O)O)c2ccoc2)c1 (racemic) [Example 52, (±)β-[[2-[[[3-[(aminoiminomethyl)amino]phenyl]carbonyl]amino]acetyl]amino]furan-3-propanoic acid, trifluoroacetate salt]
2.51 nM | 1.44 nM | > 100000 nM | Cc1ccc(SCCC(CC(=O)O)NC(=O)CNC(=O)c2cccc(NC(=N)N)c2)cc1 (racemic) [Example 66, (±)3-[[2-[[[3-[(aminoiminomethyl)amino]phenyl]carbonyl]amino]acetyl]amino]-5-[(4-methylphenyl)thio]pentanoic acid, trifluoroacetate salt]
320 nM | 1.75 nM | > 200000 nM | C#C[C@H](CC(=O)O)NC(=O)CNC(=O)c1cccc(NC2=NCCCCC2)c1 [Example 30, βS-[[2-[[[3-[(3,4,5,6-tetrahydro-2H-azepin-7-yl)amino]phenyl]carbonyl]amino]acetyl]amino]-4-pentynoic acid, trifluoroacetate salt]
12.7 nM | 0.91 nM | > 200000 nM | N=C(NCc1ccccc1)Nc1cccc(C(=O)NCC(=O)NC(CC(=O)O)c2cccnc2)c1 (racemic) [Example 24, (±)β-[[2-[[[3-[[imino[(phenylmethyl)amino]methyl]amino]phenyl]carbonyl]amino]acetyl]amino]pyridine-3-propanoic acid, bis(trifluoroacetate)salt]
13.8 nM | 9.7 nM | > 200000 nM | Cc1ccc(S(=O)(=O)NCC(CC(=O)O)NC(=O)CNC(=O)c2cccc(NC(=N)N)c2)cc1 (stereo not drawn) [Example 65, 3-[[2-[[[3-[(aminoiminomethyl)amino]phenyl]carbonyl]amino]acetyl]amino]-4-[[(4-methylphenyl)sulfonyl]amino]butanoic acid, trifluoroacetate salt]

Reference: US6831199B1, “Pyrimidine compounds and derivatives thereof” (G. D. Searle & Co., priority 1995, dated 2004)
